Earlier results in article PMC10783161 (RSC Advances, 2024).

Details: biphasic elimination, slower terminal phase

Structure (SMILES): COc1cc([C@@H]2c3cc4c(cc3[C@@H](O[C@@H]3O[C@@H]5CO[C@@H](C)O[C@H]5[C@H](O)[C@H]3O)[C@H]3COC(=O)[C@H]23)OCO4)cc(OC)c1O [ETP, etoposide]
- terminal phase half-life: 4 to 11 h
